The results in this text go back to patent publication US11739098B2 (BRISTOL-MYERS SQUIBB COMPANY, priority 2017, dated 2023).

What all share (type): cell-based
The target of experiment [1] is T1, human TLR8 (Homo sapiens, UniProt Q9NR97).
T1 construct: host or cells: HEK-Blue cells (HEK293-derived reporter line)
T1 sequence (Q9NR97 27-1041): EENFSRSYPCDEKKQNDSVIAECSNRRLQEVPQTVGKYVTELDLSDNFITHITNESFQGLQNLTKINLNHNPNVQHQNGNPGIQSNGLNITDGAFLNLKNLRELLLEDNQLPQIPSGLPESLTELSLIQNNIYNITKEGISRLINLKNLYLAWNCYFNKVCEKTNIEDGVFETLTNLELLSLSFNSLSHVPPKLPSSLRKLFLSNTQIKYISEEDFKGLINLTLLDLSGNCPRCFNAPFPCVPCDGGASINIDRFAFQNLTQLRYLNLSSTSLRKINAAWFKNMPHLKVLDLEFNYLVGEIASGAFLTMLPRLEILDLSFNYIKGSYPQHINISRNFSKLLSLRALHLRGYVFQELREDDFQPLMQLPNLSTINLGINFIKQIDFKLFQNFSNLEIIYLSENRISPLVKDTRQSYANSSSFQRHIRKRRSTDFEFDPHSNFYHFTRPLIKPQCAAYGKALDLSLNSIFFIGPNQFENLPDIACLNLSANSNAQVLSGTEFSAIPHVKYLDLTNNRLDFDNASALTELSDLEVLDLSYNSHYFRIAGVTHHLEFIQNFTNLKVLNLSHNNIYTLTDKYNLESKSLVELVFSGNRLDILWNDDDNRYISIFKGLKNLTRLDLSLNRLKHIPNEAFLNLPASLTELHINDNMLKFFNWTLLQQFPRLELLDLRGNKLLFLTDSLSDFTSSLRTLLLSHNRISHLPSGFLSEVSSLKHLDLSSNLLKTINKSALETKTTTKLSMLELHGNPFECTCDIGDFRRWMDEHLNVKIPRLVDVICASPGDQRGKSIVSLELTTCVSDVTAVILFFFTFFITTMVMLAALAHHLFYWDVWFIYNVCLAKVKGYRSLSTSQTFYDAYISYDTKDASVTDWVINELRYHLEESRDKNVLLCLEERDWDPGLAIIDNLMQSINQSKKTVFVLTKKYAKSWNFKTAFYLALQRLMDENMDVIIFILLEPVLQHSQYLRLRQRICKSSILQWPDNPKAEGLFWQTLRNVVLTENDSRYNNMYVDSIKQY
The experiment is described as follows: TLR8 inhibition reporter assay (HEK-Blue cells, SEAP reporter, R848 stimulation). The settings on record: HEK-Blue cells overexpressing human TLR8, SEAP reporter, R848 15.9 μM. In short, it runs like this:
(§1)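 HEK-Blue cells overexpressing the receptor, with NF-κB/AP-1-driven SEAP, were pre-treated 30 min at room temperature with compound (0.05 nM–50 μM), then stimulated with gardiquimod 7.5 μM (TLR7), R848 15.9 μM (TLR8) or ODN2006 5 nM (TLR9). SEAP was read after 22 h at 37 °C as percent inhibition.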
Background: In a reporter assay the amount or activity of a reporter protein is the signal.

The target of experiment [2] is T2, human TLR7 (Homo sapiens, UniProt Q9NYK1).
T2 construct: host or cells: HEK-Blue cells (HEK293-derived reporter line)
T2 sequence (Q9NYK1 27-1049): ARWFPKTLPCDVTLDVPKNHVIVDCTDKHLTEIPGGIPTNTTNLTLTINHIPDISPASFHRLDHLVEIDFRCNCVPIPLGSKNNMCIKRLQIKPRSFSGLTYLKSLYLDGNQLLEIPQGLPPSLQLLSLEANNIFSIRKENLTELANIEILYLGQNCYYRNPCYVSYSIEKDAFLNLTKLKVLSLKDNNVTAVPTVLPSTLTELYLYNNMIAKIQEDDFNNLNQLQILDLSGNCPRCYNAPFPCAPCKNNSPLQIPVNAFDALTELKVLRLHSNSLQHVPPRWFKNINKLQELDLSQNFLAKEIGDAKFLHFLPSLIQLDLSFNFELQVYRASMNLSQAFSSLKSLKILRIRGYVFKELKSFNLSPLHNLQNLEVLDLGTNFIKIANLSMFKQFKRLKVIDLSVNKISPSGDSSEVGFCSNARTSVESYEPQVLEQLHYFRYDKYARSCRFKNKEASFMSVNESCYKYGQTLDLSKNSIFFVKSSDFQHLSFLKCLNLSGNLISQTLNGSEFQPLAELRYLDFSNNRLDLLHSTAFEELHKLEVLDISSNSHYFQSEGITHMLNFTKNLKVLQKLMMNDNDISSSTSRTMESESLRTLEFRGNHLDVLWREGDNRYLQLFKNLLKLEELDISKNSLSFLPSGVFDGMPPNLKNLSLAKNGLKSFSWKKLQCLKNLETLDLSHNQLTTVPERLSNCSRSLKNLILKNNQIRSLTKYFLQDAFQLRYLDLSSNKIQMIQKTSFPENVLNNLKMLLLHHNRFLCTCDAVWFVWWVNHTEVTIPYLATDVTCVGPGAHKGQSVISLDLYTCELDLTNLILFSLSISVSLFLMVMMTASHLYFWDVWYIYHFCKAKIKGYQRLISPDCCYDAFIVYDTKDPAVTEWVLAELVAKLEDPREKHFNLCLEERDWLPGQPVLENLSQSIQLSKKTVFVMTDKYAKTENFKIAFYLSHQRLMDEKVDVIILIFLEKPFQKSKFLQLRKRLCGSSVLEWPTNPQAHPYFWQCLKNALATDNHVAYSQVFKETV
Description: TLR7 inhibition reporter assay (HEK-Blue cells, SEAP reporter, gardiquimod stimulation). The settings on record: HEK-Blue cells overexpressing human TLR7, SEAP reporter, gardiquimod 7.5 μM. In outline:
as §1

Experiment [3] concerns the target T3, human TLR9 (Homo sapiens, UniProt Q9NR96).
T3 construct: host or cells: HEK-Blue cells (HEK293-derived reporter line)
T3 sequence (Q9NR96 26-1032): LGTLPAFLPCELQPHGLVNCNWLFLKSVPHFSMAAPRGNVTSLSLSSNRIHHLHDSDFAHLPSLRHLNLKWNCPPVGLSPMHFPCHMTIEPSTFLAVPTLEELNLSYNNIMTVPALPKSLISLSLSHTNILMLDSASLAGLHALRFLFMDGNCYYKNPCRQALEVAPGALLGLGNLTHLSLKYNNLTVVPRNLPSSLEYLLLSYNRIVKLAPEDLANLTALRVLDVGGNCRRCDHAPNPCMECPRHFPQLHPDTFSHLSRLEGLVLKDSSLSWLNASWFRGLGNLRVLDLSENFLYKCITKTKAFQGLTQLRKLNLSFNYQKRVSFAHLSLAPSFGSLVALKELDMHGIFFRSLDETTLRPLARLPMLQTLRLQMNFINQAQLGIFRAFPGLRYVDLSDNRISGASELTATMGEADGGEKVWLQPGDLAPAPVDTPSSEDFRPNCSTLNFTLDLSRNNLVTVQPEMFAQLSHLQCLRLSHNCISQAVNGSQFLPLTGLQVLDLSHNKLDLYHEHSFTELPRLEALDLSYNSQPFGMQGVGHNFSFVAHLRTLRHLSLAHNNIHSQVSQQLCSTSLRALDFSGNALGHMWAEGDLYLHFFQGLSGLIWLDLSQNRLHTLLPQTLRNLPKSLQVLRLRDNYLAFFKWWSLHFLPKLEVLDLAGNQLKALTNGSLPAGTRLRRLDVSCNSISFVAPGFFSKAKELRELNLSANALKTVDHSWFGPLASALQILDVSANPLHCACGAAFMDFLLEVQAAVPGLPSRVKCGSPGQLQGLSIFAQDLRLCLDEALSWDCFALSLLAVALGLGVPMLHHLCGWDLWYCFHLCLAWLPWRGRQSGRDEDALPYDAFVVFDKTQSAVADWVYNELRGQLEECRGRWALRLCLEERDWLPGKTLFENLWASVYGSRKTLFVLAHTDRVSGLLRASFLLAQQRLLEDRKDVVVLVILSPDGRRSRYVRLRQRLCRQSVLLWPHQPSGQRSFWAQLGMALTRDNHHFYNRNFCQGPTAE
The experiment is described as follows: TLR9 inhibition reporter assay (HEK-Blue cells, SEAP reporter, ODN2006 stimulation). The settings on record: HEK-Blue cells overexpressing human TLR9, SEAP reporter, ODN2006 5 nM. In short, it runs like this: as §1

As usually defined, the IC50 is the point on the concentration scale where inhibition reaches its midpoint. A higher IC50 goes with weaker potency in that assay. Regarding `CC(C)c1c(-c2ccnc3[nH]ncc23)[nH]c2ccc(C3CCN(CCCN(C)C)CC3)cc12` [Example 845, 3-(4-(3-isopropyl-2-(1H-pyrazolo[3,4-b]pyridin-4-yl)-1H-indol-5-yl)piperidin-1-yl)-N,N-dimethylpropan-1-amine], the IC50 in experiment [1], in experiment [2] and in experiment [3] was 100 to 1000 nM each time.
Consider `Cc1cc(-c2[nH]c3ccc(C4CCN(Cc5ncn(C)n5)CC4)cc3c2C(C)C)cc2cnnn12` [Example 890, 5-(3-isopropyl-5-(1-((1-methyl-1H-1,2,4-triazol-3-yl)methyl)piperidin-4-yl)-1H-indol-2-yl)-7-methyl-[1,2,3]triazolo[1,5-a]pyridine], for which the IC50 in experiment [1] is below 100 nM; in experiment [2], below 100 nM; in experiment [3], 1000 to 50000 nM.
Consider `Cc1nnn2ccc(-c3[nH]c4ccc(C5CCN(C6COC6)CC5)cc4c3C(C)C)cc12` [Example 743, 5-(3-isopropyl-5-(1-(oxetan-3-yl)piperidin-4-yl)-1H-indol-2-yl)-3-methyl-[1,2,3]triazolo[1,5-a]pyridine], for which the IC50 in experiment [1] is below 100 nM; in experiment [2], below 100 nM; in experiment [3], 1000 to 50000 nM.
Turning to `Cc1cc(-c2[nH]c3ccc(C4CCNCC4)cc3c2C(C)C)cc2cccnc12` [Example 141, 6-(3-isopropyl-5-(piperidin-4-yl)-1H-indol-2-yl)-8-methylquinoline], the IC50 is below 100 nM in experiment [1], below 100 nM in experiment [2] and 1000 to 50000 nM in experiment [3].
Turning to `Cc1c(-c2[nH]c3ccc(C4CCNCC4)cc3c2C(C)C)cn2nnnc2c1C` [Example 73, 6-(3-isopropyl-5-(piperidin-4-yl)-1H-indol-2-yl)-7,8-dimethyltetrazolo[1,5-a]pyridine], the values for the IC50 in experiment [1], in experiment [2] and in experiment [3] were below 100 nM, below 100 nM and 1000 to 50000 nM, respectively.
For `Cc1nn2ccc(-c3[nH]c4ccc(C5CCN(CC(=O)N(C)C)CC5)cc4c3C(C)C)nc2c1F` [Example 400, 2-(4-(2-(3-fluoro-2-methylpyrazolo[1,5-a]pyrimidin-5-yl)-3-isopropyl-1H-indol-5-yl)piperidin-1-yl)-N,N-dimethylacetamide], the IC50 in experiment [1] was 1000 to 50000 nM; in experiment [2] it was above 3130 nM; in experiment [3], 1000 to 50000 nM.
Consider `CC(C)c1c(-c2ccnc3c2CC(=O)N3)[nH]c2ccc(C3CCNCC3)cc12` [Example 69, 4-(3-isopropyl-5-(piperidin-4-yl)-1H-indol-2-yl)-1,3-dihydro-2H-pyrrolo[2,3-b]pyridin-2-one], for which the IC50 is below 100 nM in experiment [1], 100 to 1000 nM in experiment [2] and 100 to 1000 nM in experiment [3].
For `Cc1nnn2ccc(-c3[nH]c4ccc(C5CCN(CC(N)=O)CC5)cc4c3C(C)C)cc12` [Example 317, 2-(4-(3-isopropyl-2-(3-methyl-[1,2,3]triazolo[1,5-a]pyridin-5-yl)-1H-indol-5-yl)piperidin-1-yl)acetamide], the IC50 in experiment [1] was below 100 nM; in experiment [2] it was below 100 nM; in experiment [3], 1000 to 50000 nM.
For `CC(C)c1c(-c2ccn3nncc3c2)[nH]c2ccc(C3CCN(CC(=O)N(C)C)CC3)cc12` [Example 302, 2-(4-(2-([1,2,3]triazolo[1,5-a]pyridin-5-yl)-3-isopropyl-1H-indol-5-yl)piperidin-1-yl)-N,N-dimethylacetamide], the IC50 was 100 to 1000 nM in experiment [1], below 100 nM in experiment [2] and 1000 to 50000 nM in experiment [3].
Regarding `CNCC(=O)N1CCC(c2ccc3[nH]c(-c4cn5cc(C)nc5cc4C)c(C(C)C)c3c2)CC1` [Example 510, 1-(4-(2-(2,7-dimethylimidazo[1,2-a]pyridin-6-yl)-3-isopropyl-1H-indol-5-yl)piperidin-1-yl)-2-(methylamino)ethan-1-one], the values for the IC50 in experiment [1], in experiment [2] and in experiment [3] were 1000 to 50000 nM, below 100 nM and 100 to 1000 nM, respectively.
